In ChEMBL document CHEMBL6071181, “Discovery of ZLC491 as a Potent, Selective, and Orally Bioavailable CDK12/13 PROTAC Degrader” (J Med Chem, 2024):
Calls of active or inactive are those of the source. No cut-off for these calls is given here.

Key:
[1] = Antiproliferative activity against human MRC5 cells assessed as inhibition of cell growth incubated for 5 days by CCK8 assay; format: toxicity, cell-based
[2] = Antiproliferative activity against human MCF-10A cells assessed as inhibition of cell growth incubated for 5 days by CCK8 assay; format: toxicity, cell-based
MDA-MB-231 [3] = experiment: Induction of CCNK degradation in human MDA-MB-231 cells incubated for 15 hrs by immunoblotting analysis; format: cell-based; settings: dose 0.01-3 µM
MDA-MB-231 [4] = experiment: Downregulation of BRCA1 protein level in human MDA-MB-231 cells at 0.1 to 0.5 uM incubated for 48 hrs by immunoblotting analysis; format: functional, cell-based; settings: dose 0.1-0.5 µM
[5] = molecular target: T1, Protein cereblon/Cyclin-dependent kinase 13 (Homo sapiens) (UniProt Q14004+Q96SW2); experiment: PROTAC activity at CRBN/CDK13 in human MDA-MB-231 cells assessed as induction of CDK13 degradation at 1 uM pretreated with MG132 followed by compound addition and measured after 10 hrs by immunoblotting analysis; format: cell-based
T1 sequence (Q14004 whole entry, looked up): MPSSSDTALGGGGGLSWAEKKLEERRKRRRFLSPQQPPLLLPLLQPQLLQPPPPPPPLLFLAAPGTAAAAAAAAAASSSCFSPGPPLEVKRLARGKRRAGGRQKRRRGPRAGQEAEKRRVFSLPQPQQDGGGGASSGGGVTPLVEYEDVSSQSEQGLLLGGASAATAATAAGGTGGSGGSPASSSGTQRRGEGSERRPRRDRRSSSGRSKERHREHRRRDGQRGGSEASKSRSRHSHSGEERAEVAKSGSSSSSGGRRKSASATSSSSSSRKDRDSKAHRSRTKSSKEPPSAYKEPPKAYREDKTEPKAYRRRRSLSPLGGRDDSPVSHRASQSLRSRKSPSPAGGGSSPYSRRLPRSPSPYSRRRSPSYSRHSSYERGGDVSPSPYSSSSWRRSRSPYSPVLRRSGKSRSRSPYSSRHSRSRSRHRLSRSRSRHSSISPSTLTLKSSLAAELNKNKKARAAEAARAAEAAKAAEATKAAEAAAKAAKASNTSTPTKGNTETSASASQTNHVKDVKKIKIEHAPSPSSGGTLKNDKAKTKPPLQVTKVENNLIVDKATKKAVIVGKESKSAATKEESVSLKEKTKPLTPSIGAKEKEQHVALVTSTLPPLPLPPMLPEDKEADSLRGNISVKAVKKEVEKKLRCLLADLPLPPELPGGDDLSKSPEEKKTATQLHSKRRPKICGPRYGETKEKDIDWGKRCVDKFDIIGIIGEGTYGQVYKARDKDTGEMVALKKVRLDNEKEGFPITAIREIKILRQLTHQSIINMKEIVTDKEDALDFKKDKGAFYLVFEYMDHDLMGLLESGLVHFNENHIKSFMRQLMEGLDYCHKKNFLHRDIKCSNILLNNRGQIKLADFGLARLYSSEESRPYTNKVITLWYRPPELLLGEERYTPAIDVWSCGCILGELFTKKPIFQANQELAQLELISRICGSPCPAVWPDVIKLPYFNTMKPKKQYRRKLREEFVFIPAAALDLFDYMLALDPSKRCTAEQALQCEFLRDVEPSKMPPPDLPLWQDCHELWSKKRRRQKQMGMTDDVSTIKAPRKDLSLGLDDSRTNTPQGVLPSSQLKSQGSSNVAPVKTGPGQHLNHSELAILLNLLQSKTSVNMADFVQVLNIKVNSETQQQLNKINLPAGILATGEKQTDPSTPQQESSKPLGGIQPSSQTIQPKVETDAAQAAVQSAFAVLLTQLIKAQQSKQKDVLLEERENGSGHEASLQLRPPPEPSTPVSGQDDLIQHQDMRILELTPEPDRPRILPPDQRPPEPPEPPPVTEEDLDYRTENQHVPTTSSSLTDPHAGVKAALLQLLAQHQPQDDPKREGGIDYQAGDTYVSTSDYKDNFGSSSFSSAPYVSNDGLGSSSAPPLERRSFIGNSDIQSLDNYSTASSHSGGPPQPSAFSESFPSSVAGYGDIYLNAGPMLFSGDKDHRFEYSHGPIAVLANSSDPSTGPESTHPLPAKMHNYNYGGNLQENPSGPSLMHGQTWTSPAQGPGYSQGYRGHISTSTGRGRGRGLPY
T1 sequence (Q96SW2 whole entry, looked up): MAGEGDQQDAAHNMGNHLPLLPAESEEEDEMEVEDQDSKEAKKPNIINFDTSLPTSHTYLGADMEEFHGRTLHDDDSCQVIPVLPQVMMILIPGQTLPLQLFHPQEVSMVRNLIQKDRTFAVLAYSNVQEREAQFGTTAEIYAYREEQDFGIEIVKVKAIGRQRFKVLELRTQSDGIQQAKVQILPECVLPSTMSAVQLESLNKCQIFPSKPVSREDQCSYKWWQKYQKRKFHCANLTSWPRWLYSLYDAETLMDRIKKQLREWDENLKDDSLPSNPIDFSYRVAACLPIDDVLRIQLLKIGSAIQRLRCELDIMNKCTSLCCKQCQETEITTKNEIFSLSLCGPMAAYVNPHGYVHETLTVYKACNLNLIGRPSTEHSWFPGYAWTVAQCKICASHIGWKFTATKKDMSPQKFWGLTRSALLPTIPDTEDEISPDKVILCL

[6] = molecular target: T2, Protein cereblon/Cyclin-dependent kinase 12 (Homo sapiens) (UniProt Q9NYV4+Q96SW2); experiment: PROTAC activity at CRBN/CDK12 in human HCC38 cells assessed as induction of CDK12 degradation incubated for 15 hrs by immunoblotting analysis; format: cell-based; settings: dose 0.01-3 µM
T2 sequence (Q96SW2 whole entry, looked up): as above
T2 sequence (Q9NYV4 whole entry, looked up): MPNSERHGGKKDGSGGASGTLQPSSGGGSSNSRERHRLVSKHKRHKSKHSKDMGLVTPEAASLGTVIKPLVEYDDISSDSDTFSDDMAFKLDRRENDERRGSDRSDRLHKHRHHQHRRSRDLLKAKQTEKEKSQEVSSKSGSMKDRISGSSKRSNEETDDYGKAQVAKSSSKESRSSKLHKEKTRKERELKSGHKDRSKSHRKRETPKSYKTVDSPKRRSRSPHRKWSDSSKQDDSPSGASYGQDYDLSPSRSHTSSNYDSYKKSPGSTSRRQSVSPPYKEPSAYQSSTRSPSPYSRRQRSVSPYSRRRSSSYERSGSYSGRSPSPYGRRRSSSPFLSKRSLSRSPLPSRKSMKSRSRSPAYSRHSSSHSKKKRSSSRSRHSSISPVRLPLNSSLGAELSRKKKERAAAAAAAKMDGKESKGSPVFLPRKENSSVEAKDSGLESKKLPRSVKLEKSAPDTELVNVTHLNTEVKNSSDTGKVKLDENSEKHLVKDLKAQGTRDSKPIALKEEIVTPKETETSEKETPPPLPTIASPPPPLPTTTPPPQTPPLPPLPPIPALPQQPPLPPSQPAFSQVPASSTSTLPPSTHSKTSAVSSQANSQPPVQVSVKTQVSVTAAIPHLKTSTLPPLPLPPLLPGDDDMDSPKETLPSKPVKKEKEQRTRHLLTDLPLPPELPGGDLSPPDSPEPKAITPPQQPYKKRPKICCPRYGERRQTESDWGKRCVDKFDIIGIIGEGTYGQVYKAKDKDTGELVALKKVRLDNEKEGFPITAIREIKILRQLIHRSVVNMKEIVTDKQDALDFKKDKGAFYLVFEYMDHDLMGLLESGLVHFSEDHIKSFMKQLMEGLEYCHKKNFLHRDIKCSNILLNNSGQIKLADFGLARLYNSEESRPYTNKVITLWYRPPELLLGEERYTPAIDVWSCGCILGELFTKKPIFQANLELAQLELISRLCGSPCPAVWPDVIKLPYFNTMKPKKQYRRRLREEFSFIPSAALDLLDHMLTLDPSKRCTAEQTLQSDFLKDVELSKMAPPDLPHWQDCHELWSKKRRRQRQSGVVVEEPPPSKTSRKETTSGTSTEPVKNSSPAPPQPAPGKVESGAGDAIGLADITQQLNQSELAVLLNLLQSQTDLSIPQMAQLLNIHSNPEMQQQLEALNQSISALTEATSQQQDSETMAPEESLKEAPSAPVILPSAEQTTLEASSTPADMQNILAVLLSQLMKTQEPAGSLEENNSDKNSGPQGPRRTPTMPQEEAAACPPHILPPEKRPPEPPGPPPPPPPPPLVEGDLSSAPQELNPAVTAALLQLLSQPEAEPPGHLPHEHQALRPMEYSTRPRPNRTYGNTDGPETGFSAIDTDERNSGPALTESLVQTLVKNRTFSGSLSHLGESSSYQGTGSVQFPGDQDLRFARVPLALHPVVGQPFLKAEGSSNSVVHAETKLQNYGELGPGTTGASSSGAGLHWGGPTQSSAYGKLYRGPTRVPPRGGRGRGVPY

[7] = molecular target: T1, Protein cereblon/Cyclin-dependent kinase 13 (Homo sapiens); experiment: PROTAC activity at CRBN/CDK13 in human MDA-MB-231 cells assessed as induction of CDK13 degradation at 1 uM by immunoblotting analysis; format: cell-based; settings: time <= 24.0 hrs, TDE = time-dependent effect
[8] = molecular target: T1, Protein cereblon/Cyclin-dependent kinase 13 (Homo sapiens); experiment: In vivo PROTAC activity at CRBN/CDK13 in female CB17SCID mouse model xenografted with human MDA-MB-231 cells assessed as reduction in CDK13 protein expression in tumor at 100 to 200 mg/kg, po administered for 5 days by immunoblotting analysis; format: functional, organism-based; settings: dose 100-200 mg/kg, time 5.0 day
[9] = Toxicity in female CB17SCID mouse model xenografted with human MDA-MB-231 cells assessed as body weight loss at 100 to 200 mg/kg, po administered for 5 days; format: organism-based; settings: in vivo, 120 h, dose 100-200 mg/kg, time 5 day
MDA-MB-231 [10] = experiment: Synergistic antiproliferative activity against human MDA-MB-231 cells assessed as combination index at 0.3 uM incubated for 5 days in presence of olaparib by CCK8 assay; format: functional; settings: time 5 day
MDA-MB-231 [11] = experiment: Downregulation of BRCA1 mRNA expression in human MDA-MB-231 cells incubated for 12 hrs by RT-qPCR analysis; format: functional, cell-based; settings: dose 60-300 nM
[12] = molecular target: T2, Protein cereblon/Cyclin-dependent kinase 12 (Homo sapiens); experiment: PROTAC activity at CRBN/CDK12 in human MDA-MB-231 cells assessed as induction of CDK12 degradation at 2 uM incubated for 8 hrs by global proteomic analysis; format: cell-based
MDA-MB-231 [13] = experiment: Downregulation of SMARCC mRNA expression in human MDA-MB-231 cells incubated for 12 hrs by RT-qPCR analysis; format: functional, cell-based; settings: dose 60-300 nM
MDA-MB-231 [14] = experiment: Synergistic antiproliferative activity against human MDA-MB-231 cells assessed as combination index at 7.5 uM incubated for 5 days in presence of olaparib by CCK8 assay; format: functional; settings: time 5 day
[15] = molecular target: T2, Protein cereblon/Cyclin-dependent kinase 12 (Homo sapiens); experiment: PROTAC activity at CRBN/CDK12 in human MDA-MB-231 cells assessed as induction of CDK12 degradation at 1 uM by immunoblotting analysis; format: cell-based; settings: time <= 24.0 hrs, TDE = time-dependent effect
[16] = molecular target: T1, Protein cereblon/Cyclin-dependent kinase 13 (Homo sapiens); experiment: PROTAC activity at CRBN/CDK13 in human MDA-MB-436 cells assessed as induction of CDK13 degradation incubated for 15 hrs by immunoblotting analysis; format: cell-based; settings: dose 0.01-3 µM

- Activity [5]: inactive
- Activity [6]: Dose-Dependent Effect
- Activity [7]: Tde
- Activity [8]: Active
- Activity [12]: Active
- Activity [15]: Tde
- Activity [16]: Dose-Dependent Effect
Structure (SMILES): N#Cc1ccc(N[C@H]2CC[C@H](N(C(=O)NCc3ccccc3)c3ccc(N4CCN(C5CCN(c6cc7c(cc6F)C(=O)N(C6CCC(=O)NC6=O)C7=O)CC5)CC4)cc3)CC2)nc1 (stereo partly specified)
- IC50 at 5 days [1]: > 10 µM
- IC50 at 5 days [2]: > 10 µM
- Activity (MDA-MB-231 [3]): Dose-Dependent Effect
- Activity (MDA-MB-231 [4]): Active
- Activity [9]: Non-Toxic
- CI (MDA-MB-231 [10]): >1
- Activity (MDA-MB-231 [11]): Dose-Dependent Effect
- Activity (MDA-MB-231 [13]): Dose-Dependent Effect
- CI (MDA-MB-231 [14]): 0.85
